Data as given in paper PMC10341805, “Positive Allosteric Modulator of SERCA Pump NDC-1173 Exerts Beneficial Effects in Mouse Model of Alzheimer’s Disease” (International Journal of Molecular Sciences, 2023).
Like-named read-outs stand apart in the source and are kept apart here.

Columns and labels:
APP/PS1 mice [1] = assay: Ca2+ imaging in APP/PS1 mice; set-up: species or system mouse
Na/K-ATPase = assay: Selectivity test on Na/K-ATPase; assay type: biochemical; details: selectivity for SERCA
[2] = test system: binding immunoglobulin protein (BiP/Grp78); assay: qPCR of ER-stress marker BiP mRNA in hippocampus of treated APP/PS1 mice; assay type: in vivo, mouse; details: 30 mg/kg oral gavage 3 times per week for 8 weeks, vs untreated APP/PS1, normalized to Cyclophilin, mean ± SD
Excerpt: (§1) As previously established in Alzheimer’s disease (AD) research, ER stress is an apparent consequence of protein misfolding within AD pathophysiology. In response to this ER stress, cells activate a group of signaling pathways known as the unfolded protein response (UPR) that aims to restore ER function so the cell may survive. […] We examined the mRNA expression levels of these ER-stress markers in the hippocampus of APP/PS1 mice treated with NUCC-0226446, NUCC-0226614, NUCC-0226646, and NDC-1173 compounds compared to untreated APP/PS1 mice utilizing real-time quantitative PCR using primer sets indicated in Table 2. There was significant reduction (p = 0.0002) in the ER-stress marker, Chop, after treatment with NDC-1173 compared to untreated APP/PS1 mice (n = 9–11) (Figure 4, Table 3). […]
(§2) At 10 months of age, mice were rapidly decapitated, and the entire hippocampus was dissected and snap-frozen using liquid nitrogen. […] Total RNA concentration and purity was then measured using a NanoDrop spectrophotometer. […] Data were exported from the RT PCR machine into an excel worksheet. %CVs were calculated between triplicate well CT values to rule out technical outliers. […] Relative expression was then analyzed following the comparative CT method ( 2^−∆∆CT method).

[3] = test system: C/EBP homologous protein (CHOP/Ddit3); assay: qPCR of ER-stress marker CHOP mRNA in hippocampus of treated APP/PS1 mice; assay type: in vivo, mouse; details: 30 mg/kg oral gavage 3 times per week for 8 weeks, vs untreated APP/PS1, normalized to Cyclophilin, mean ± SD
Excerpt: as §1, §2

[4] = test system: X-box binding protein 1 spliced variant (XBP1spl); assay: qPCR of ER-stress marker XBP1spl mRNA in hippocampus of treated APP/PS1 mice; assay type: in vivo, mouse; details: 30 mg/kg oral gavage 3 times per week for 8 weeks, vs untreated APP/PS1, normalized to Cyclophilin, mean ± SD
Excerpt: as §1, §2

APP/PS1 mice [5] = assay: Morris water maze (training and probe trial); assay type: in vivo, mouse; details: 30 mg/kg oral gavage 3 times per week for 8 weeks
Experimental: (§3) To evaluate the effects of NUCC-0226446, NUCC-0226614, NUCC-0226646, and NDC-1173 on cognitive readouts in the AD mouse model, we treated APP/PS1 male and female mice with vehicle (10%DMSO/10%Tween80 in water) or SERCA PAMs (30 mg/kg) via oral gavage three times per week for 8 weeks, starting at 6 months of age. Open-field, object-recognition, and water maze assays were performed following treatment with 8-month-old mice. To test for locomotor activity changes in response to SERCA PAMs treatment in APP/PS1, we used the open-field test. The results obtained with NUCC-0226446, NUCC-0226614, NUCC-0226646 are shown in Supplementary Figure S1 and results with NDC-1173 are shown in Figure 3. […] There was a significant sex difference in the open field (F(1,27) = […]), but there was no sex by treatment interaction found.
(§4) Vehicle or NDC 1173 was administered via oral gavage 3 times per week for 8 weeks at a dose of 30 mg/kg in a vehicle containing 10%DMSO/10%Tween80 in water at a 3 mg/mL concentration. […]
The water maze consisted of 3 phases pre-training, training, and probe trial. […] Ethovision XT (Version 15) tracking software recorded the latency to the platform. […] During the probe trial, the platform was not present within the pool and the search pattern of the mouse is measured. […]

ryanodine receptor = assay: Selectivity test on ryanodine receptor; assay type: biochemical; details: selectivity for SERCA
APP/PS1 mice [6] = assay: Tolerability during 8 weeks of administration; assay type: in vivo, mouse; details: 30 mg/kg oral gavage 3 times per week for 8 weeks
Experimental: Vehicle or NDC 1173 was administered via oral gavage 3 times per week for 8 weeks at a dose of 30 mg/kg in a vehicle containing 10%DMSO/10%Tween80 in water at a 3 mg/mL concentration. The dose was chosen so that the drug would be on board while the first signs of amyloid plaques appear (6 mos) and before the time the disease had fully progressed. We chose to administer the drug 3 times per week to cause minimal stress to the mouse.

[7] = test system: activating transcription factor 6 (ATF6); assay: qPCR of ER-stress marker ATF6 mRNA in hippocampus of treated APP/PS1 mice; assay type: in vivo, mouse; details: 30 mg/kg oral gavage 3 times per week for 8 weeks, vs untreated APP/PS1, normalized to Cyclophilin, mean ± SD
Excerpt: as §1, §2

L-type Ca channel = assay: Selectivity test on L-type Ca channel; assay type: biochemical; details: selectivity for SERCA
[8] = test system: activating transcription factor 4 (ATF4); assay: qPCR of ER-stress marker ATF4 mRNA in hippocampus of treated APP/PS1 mice; assay type: in vivo, mouse; details: 30 mg/kg oral gavage 3 times per week for 8 weeks, vs untreated APP/PS1, normalized to Cyclophilin, mean ± SD
Excerpt: as §1, §2

APP/PS1 mice [9] = assay: Object recognition task; assay type: in vivo, mouse; details: 30 mg/kg oral gavage 3 times per week for 8 weeks, test 24 h after training
Experimental: as §3, §4
The object recognition task (OR) was performed as previously described. […] Interaction was determined by the length of time the mouse’s nose was within 1 cm of a tightly drawn zone around each object. […] Time spent interacting with each object was then measured using Ethovision XT software (Version 15). […]

[10] = Pharmacokinetics in CD-1 mice (plasma and brain); assay type: in vivo, mouse
Experimental: Pharmacokinetics of NDC-1173 were assessed in CD-1 mice. The compound was formulated at 1 mg/mL in DMSO/Tween 80/water (10/10/80, vol/vol/vol) and dosed at 2 mg/kg intravenously (i.v.) or 10 mg/kg via oral gavage (P.O.) in triplicate. Blood was drawn at 0.25 h, 0.5 h, 1 h, 2 h, 4 h, 8 h, and 24 h into EDTA-containing tubes, and plasma was harvested via centrifugation. Plasma (10 μL) containing 50% acetonitrile in water (5 μL) was added to 200 µL of ACN containing an internal standard. The samples were vortexed for 30 s. After centrifugation at 4 °C and 4000 rpm for 15 min, the supernatant was diluted 3 times with water. Then, 20 µL of diluted supernatant was injected into the LC/MS/MS system for quantitative analysis. The samples were injected onto an Agilent ZORBAX XDB-Phenyl 5 μ column (50 × 2.10 mm). Mobile Phase A was water with 0.1% formic acid. Mobile Phase B was acetonitrile with 0.1% formic acid. Separation was achieved using a gradient of 70% A/30% B to 0% A/100% B over 2.10 min. A Shimadzu LCMS-8050 equipped with a turbo ion spray source was used for all analytical measurements. Data were fit using WinNonLin https://www.certara.com/software/phoenix-winnonlin/, accessed on 1 May 2023.

[11] = CD-1, mouse, plasma, oral administration 10 mg/kg

Structure (SMILES)	Effect on Ca2+ homeostasis (APP/PS1 mice [1])	Functional effect on Na/K-ATPase (Na/K-ATPase)	Fold-change of BiP mRNA expression [2]	Fold-change of CHOP mRNA expression [3]	Fold-change of XBP1spl mRNA expression [4]	Spatial learning in water maze training (4 days) vs vehicle (APP/PS1 mice [5])	Spatial memory in water maze probe trial (time in target quadrant) vs vehicle (APP/PS1 mice [5]; 24 h after last training)	Functional effect on ryanodine receptor (ryanodine receptor)	Adverse effects or weight loss (APP/PS1 mice [6])	Fold-change of ATF6 mRNA expression [7]	Functional effect on L-type Ca channel (L-type Ca channel)	Fold-change of ATF4 mRNA expression [8]	Object memory (time spent with novel object) vs vehicle (APP/PS1 mice [9])	half-life ([10]; CD-1, mouse, brain, oral administration 10 mg/kg, read-out: Brain t1/2 (converted))	Kp ([10]; CD-1, mouse, brain/plasma, oral administration 10 mg/kg, read-out: Brain/plasma ratio)	AUC [10, 11]	Cmax [10, 11]	half-life ([10]; CD-1, mouse, plasma, oral administration 10 mg/kg, read-out: Plasma t1/2 (converted))	bioavailability ([10]; CD-1, mouse, plasma, oral, 10 mg/kg P.O. vs 2 mg/kg i.v.)	Brain concentration at 2 h ([10]; oral administration 10 mg/kg)
Cc1ccc2cccc(NC(=O)c3ccc(OC(C)C)cc3)c2n1 [CDN-1163]	restores normal Ca^2+ homeostasis																			
COc1c(C)cccc1C(=O)Nc1cccc2ccc(C)nc12 [NDC-1173, 2-methoxy-3-methyl-N-(2-methylquinolin-8-yl)benzamide]		no significant functional effects	0.74 ± 0.401	0.52 ± 0.195	0.72 ± 0.577	did not have better performance in spatial learning	spent more time in the quadrant where the escape platform was located	no significant functional effects	no adverse effects or weight loss	0.79 ± 0.327	no significant functional effects	1.17 ± 0.496	significant increase in time spent with the novel object	1.1 h	2.8	375 ng·h/mL	1250 nM	0.9 h	25.6%	2500 nM
